The values that follow come from patent publication US8049013B2, “5- [4-(azetidin-3-yloxy)-phenyl]-2-phenyl-5H-thiazolo[5,4-C] pyridin-4-one derivatives and their use as MCH receptor antagonists” (Eli Lilly and Company, priority 2006, dated 2011).

Counter-ions that a name gives are not always drawn.

For test [1], the target named is T1, human MCHR1 (Homo sapiens, UniProt Q99705).
T1 construct: expressed in transfected cells; host or cells: AV-12 cells (clone 43), membranes
Put plainly: 125I-MCH competitive binding assay (scintillation proximity), membranes of AV-12 cells transfected with human MCHR1. The following applies: Ki calculated from IC50 by Cheng-Prusoff, average. From the text:
(§1) One of skill in the art is able to perform both the ^125I-MCH binding and functional GTPγ^35S binding assays using the procedures herein or procedures disclosed in the art. For binding assay, see for example, Macdonald, D., et al., 2000. Molecular characterization of the melanin-concentrating hormone/receptor complex: identification of critical residues involved in binding and activation. Mol Pharmacol 58, 217-225. For GTPgammaS functional assay, see for example, Gao, X., et al., 2004. Europium-labeled melanin-concentrating hormone analogues: ligands for measuring binding to melanin-concentrating hormone receptors 1 and 2. Anal Biochem 328, 187-195.
Binding of compounds to MCHR1 is assessed in a competitive binding assay employing ^125I-MCH, compound of the invention, and clone 43 membranes using scintillation proximity techniques. IC50 values (defined as the concentration of test compound required to reduce specific binding of ^125I-MCH by 50%) are determined by fitting the concentration-response data to a 4-parameter model (max response, min response, Hill coefficient, IC50) using a spreadsheet.

Test [2] has as its target T1, human MCHR1. Put plainly: Functional GTPγ35S binding assay: inhibition of MCH-stimulated GTPγ35S binding to membranes of AV-12 cells expressing human MCHR1. The format is biochemical. The following applies: Kb from IC50 by modified Cheng-Prusoff (Leff and Dougal).
Source text: as §1
Functional antagonism of MCH activity is assessed by measuring the ability of a test compound to inhibit MCH-stimulated binding of GTPγ^35S to membranes isolated from AV-12 cells expressing the human MCHR1 using a scintillation proximity assay. […] After verifying competitive antagonism by Schild analysis, Kb values are calculated from the IC50 values for each antagonist and the EC50 for MCH (determined independently) using a modification of the Cheng-Prusoff approximation as described by Leff and Dougal (Trends Pharmacol. Sci. (1993) 14: 110-112). […]

Test [3] can be described thus: In vivo efficacy in diet-induced obese male Long-Evans rats, oral gavage once a day for 3 days. The following applies: 10 mg/Kg oral. How it is done: Animals are housed individually in a temperature regulated room (24° C.) with a reverse 12 hour light/dark cycle (dark 10:00/22:00). Water and food (Teklad 95217, Harlan, Wis.) were available ad libitum. Compounds are administered orally in a vehicle that consists of 10% acacia and 0.15% saccharin in water once a day before onset of the dark period for 3 days. Food intake and body weight are measured daily for the 3 day period. The compound of Example 29 produces an average body weight reduction of about 7 grams at a dose of 10 mg/Kg when compared to vehicle control.

T1 sequence (Q99705 whole entry): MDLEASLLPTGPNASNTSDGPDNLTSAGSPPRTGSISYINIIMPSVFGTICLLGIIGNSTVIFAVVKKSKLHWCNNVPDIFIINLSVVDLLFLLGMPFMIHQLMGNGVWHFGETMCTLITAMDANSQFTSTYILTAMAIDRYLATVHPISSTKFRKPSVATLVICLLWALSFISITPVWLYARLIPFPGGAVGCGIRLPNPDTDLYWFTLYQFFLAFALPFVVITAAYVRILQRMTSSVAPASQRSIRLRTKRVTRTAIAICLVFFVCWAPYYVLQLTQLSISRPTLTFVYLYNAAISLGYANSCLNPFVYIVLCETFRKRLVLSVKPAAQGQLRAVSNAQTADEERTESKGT

`COc1cc(N2CCc3nc(-c4ccc(Cl)cc4)sc3C2=O)ccc1OC1CN(C2CC2)C1` [Example 37, 2-(4-Chloro-phenyl)-5-[4-(1-cyclopropyl-azetidin-3-yloxy)-3-methoxy-phenyl]-6,7-dihydro-5H-thiazolo[5,4-c]pyridin-4-one, hydrochloride salt]: the Ki on human MCHR1 [1] was ~4 nM.

For the compound `COc1cc(N2CCc3nc(-c4ccc(Cl)cc4)sc3C2=O)ccc1OC1CN(C(C)C)C1` [Example 28, 2-(4-Chloro-phenyl)-5-[4-(1-isopropyl-azetidin-3-yloxy)-3-methoxy-phenyl]-6,7-dihydro-5H-thiazolo[5,4-c]pyridin-4-one, hydrochloride salt], at human MCHR1 [2], the Kb was ~6 nM.

As for `COc1cc(N2CCc3nc(-c4ccc(Cl)cc4)sc3C2=O)ccc1OC1CN(C2CCC2)C1.Cl` [Example 29, 2-(4-Chloro-phenyl)-5-[4-(l-cyclobutyl-azetidin-3-yloxy)-3-methoxy-phenyl]-6,7-dihydro-5H-thiazolo[5,4-c]pyridin-4-one, hydrochloride salt], in test [3], the “average body weight reduction when compared to vehicle control” value is reported as “about 7 grams”.
